Experimental data reported in ChEMBL document CHEMBL1201862, “PubChem BioAssay data set” (2004).
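How tested: cells in 96-well plates exposed to compound for 48 hours at five concentrations. GI50 = concentration required for 50% inhibition of growth.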 Calls of active or inactive are those of the source. Rule as the data show it: active = GI50 up to about 1.1 µM and inactive = higher.

How the values were obtained:
Assay in all cases: growth of human tumour cells (NCI), 48 h
MOLT-4 = tested on: MOLT-4
SW-620 = tested on: SW-620
HCC 2998 = tested on: HCC 2998
RXF 393 = tested on: RXF 393
KM-20L2 = tested on: KM-20L2
A549 = tested on: A549
EKVX = tested on: EKVX
SK-MEL-5 = tested on: SK-MEL-5
NCI-H23 = tested on: NCI-H23
HT-29 = tested on: HT-29
HCT-15 = tested on: HCT-15
HOP-92 = tested on: HOP-92
SK-OV-3 = tested on: SK-OV-3
DMS-114 = tested on: DMS-114
RPMI-8226 = tested on: RPMI-8226
ACHN = tested on: ACHN
IGROV-1 = tested on: IGROV-1
UACC-62 = tested on: UACC-62
SNB-78 = tested on: SNB-78
SF-268 = tested on: SF-268
786-0 = tested on: 786-0
XF498 = tested on: XF498
SK-MEL-2 = tested on: SK-MEL-2
UACC-257 = tested on: UACC-257
CAKI-1 = tested on: CAKI-1
KM12 = tested on: KM12
HOP-18 = tested on: HOP-18
OVCAR-4 = tested on: OVCAR-4
U-251 = tested on: U-251
HCT-116 = tested on: HCT-116
HL-60 = tested on: HL-60
NCI-H460 = tested on: NCI-H460
SN12C = tested on: SN12C
K562 = tested on: K562
SR = tested on: SR
OVCAR-3 = tested on: OVCAR-3
COLO 205 = tested on: COLO 205
M14 = tested on: M14
SF-295 = tested on: SF-295
NCI-H522 = tested on: NCI-H522
SNB-19 = tested on: SNB-19
OVCAR-5 = tested on: OVCAR-5
TK-10 = tested on: TK-10
OVCAR-8 = tested on: OVCAR-8
Malme-3M = tested on: Malme-3M
HOP-62 = tested on: HOP-62
SNB-75 = tested on: SNB-75
NCI-H226 = tested on: NCI-H226
SF-539 = tested on: SF-539
UO-31 = tested on: UO-31
A498 = tested on: A498
DMS-273 = tested on: DMS-273
DLD-1 = tested on: DLD-1
CCRF-CEM = tested on: CCRF-CEM
LXFL 529 = tested on: LXFL 529
M19-MEL = tested on: M19-MEL

SMILES: CCCCCC(=O)Nc1nc(O)c2[nH]cnc2n1
- GI50 (MOLT-4): > 100 µM (inactive)
- GI50 (SW-620): > 100 µM (inactive)
- GI50 (HCC 2998): > 100 µM (inactive)
- GI50 (RXF 393): > 100 µM (inactive)
- GI50 (KM-20L2): > 100 µM (inactive)
- GI50 (A549): > 100 µM (inactive)
- GI50 (EKVX): > 100 µM (inactive)
- GI50 (SK-MEL-5): > 100 µM (inactive)
- GI50 (NCI-H23): > 100 µM (inactive)
- GI50 (HT-29): > 100 µM (inactive)
- GI50 (HCT-15): > 100 µM
- GI50 (HOP-92): > 100 µM (inactive)
- GI50 (SK-OV-3): > 100 µM (inactive)
- GI50 (DMS-114): > 100 µM (inactive)
- GI50 (RPMI-8226): > 100 µM (inactive)
- GI50 (ACHN): > 100 µM (inactive)
- GI50 (IGROV-1): > 100 µM (inactive)
- GI50 (UACC-62): > 100 µM (inactive)
- GI50 (SNB-78): > 100 µM (inactive)
- GI50 (SF-268): > 100 µM (inactive)
- GI50 (786-0): > 100 µM (inactive)
- GI50 (XF498): > 100 µM (inactive)
- GI50 (SK-MEL-2): > 100 µM (inactive)
- GI50 (UACC-257): > 100 µM (inactive)
- GI50 (CAKI-1): > 100 µM (inactive)
- GI50 (KM12): > 100 µM (inactive)
- GI50 (HOP-18): > 100 µM (inactive)
- GI50 (OVCAR-4): > 100 µM (inactive)
- GI50 (U-251): > 100 µM (inactive)
- GI50 (HCT-116): > 100 µM (inactive)
- GI50 (HL-60): > 100 µM (inactive)
- GI50 (NCI-H460): > 100 µM (inactive)
- GI50 (SN12C): > 100 µM (inactive)
- GI50 (K562): > 100 µM (inactive)
- GI50 (SR): > 100 µM (inactive)
- GI50 (OVCAR-3): > 100 µM (inactive)
- GI50 (COLO 205): > 100 µM (inactive)
- GI50 (M14): > 100 µM (inactive)
- GI50 (SF-295): > 100 µM (inactive)
- GI50 (NCI-H522): 52.4 µM (inactive)
- GI50 (SNB-19): > 100 µM (inactive)
- GI50 (OVCAR-5): > 100 µM (inactive)
- GI50 (TK-10): > 100 µM (inactive)
- GI50 (OVCAR-8): > 100 µM (inactive)
- GI50 (Malme-3M): > 100 µM (inactive)
- GI50 (HOP-62): > 100 µM (inactive)
- GI50 (SNB-75): > 100 µM (inactive)
- GI50 (NCI-H226): > 100 µM (inactive)
- GI50 (SF-539): > 100 µM (inactive)
- GI50 (UO-31): > 100 µM (inactive)
- GI50 (A498): > 100 µM (inactive)
- GI50 (DMS-273): > 100 µM (inactive)
- GI50 (DLD-1): > 100 µM (inactive)
- GI50 (CCRF-CEM): > 100 µM (inactive)
- GI50 (LXFL 529): > 100 µM (inactive)
- GI50 (M19-MEL): > 100 µM (inactive)
